{"source": "patent US11147295B2", "about": "“Sweetener and flavor compositions, methods of making and methods of use thereof” (EPC Natural Products Co., Ltd., priority 2018, dated 2021)", "key": {"[1]": {"test": "Sensory evaluation of the samples prepared in Example 50 (Example 52)", "assay_type": "in vivo, human", "design": "key to Intensity of Smell: “+” for slight; “++” for moderate; “+++” for very strong", "protocol": "The reaction partner (amino acid, carbohydrate source) were dissolved/suspended in the reaction solvent and transferred into a glass beaker filled with sand pre-heated for at least 30 minutes at the reaction temperature in a drying oven. After the planned reaction time, the vials were transferred into ice water. After cooling to room temperature, sensory analysis and analytical characterization was performed.\nFor evaluation of the taste profile, the samples were tested by a panel of four people. 1 trained taster tasted independently the samples first. The taster was asked to describe the taste profile and score 0-5 according to the increasing sugar likeness, bitterness, aftertaste and lingering taste profiles. The first taster was allowed to re-taste, and then make notes for the sensory attributes perceived. Afterwards, another 3 tasters tasted and the attributes were noted and discussed openly to find a suitable description. In case that more than 1 taster disagreed with the results, the tasting was repeated. In some sensory test results (above), the taste rating was expressed by “+”, which means the intensity of the factors is shown by three levels. “+” for slight, “++” for moderate and “+++” for very strong."}, "[2]": {"test": "Sensory analysis of Maillard reaction samples: odor/smell, color, taste (Examples 55-62)", "assay_type": "in vivo, human", "conditions": "Example 56, negative controls (no carbohydrate source); 10 ml glycerin/water=9:1, 100° C., 40 minutes", "procedure": "All reactions were performed in 10 ml glycerin/water=9:1. The reaction partners were dissolved in water and then warmed glycerin (60° C.) was added. The reactions were performed at 100° C. for 40 minutes in a drying oven (sealed vials were positioned in pre-heated sand to increase heat transfer).\nAll samples were assessed at 22° C. after the Maillard reaction was stopped by placing the sealed vials in an ice bath. After 20 minutes in the ice bath the sealed vials were put in a water bath set to 22° C.\nThe odor/smell was assessed independently by 3 persons; the final description was agreed after discussion. […] The taste was assessed independently by 3 persons either in the original samples or after appropriate dilution to achieve relevant concentrations of sugars and steviol-glycosides (i.e. 5-9% SE); the final description was agreed after discussion."}, "[3]": {"test": "Sensory analysis of Maillard reaction samples: odor/smell, color, taste (Examples 55-62)", "assay_type": "in vivo, human"}, "[4]": {"test": "DPPH radical-scavenging activity (Example 65)", "assay_type": "physicochemical", "conditions": "iron-III reduction and DPPH radical scavenging, samples kept at 100° C. 0, 2.5 or 5.0 hours", "procedure": "1 mg 1,1-Diphenyl-2-picrylhydrazyl radical (DPPH)/ml ethanol, dilution to assay concentration were prepared in ethanol (40 μg/mL); Calibration samples were prepared with Ascorbic acid in a concentration of 0-10 μg/mL; as a negative control sample, water was used.\nSamples in aqueous solution were used as such or diluted with water.\nA 0.1 ml sample (or calibration standard) was mixed with 3.9 ml solution of DPPH (100 μMolar) and reacted while protected from light at room temperature for 30 min. Absorbance was determined at 517 nm against ethanol.\n10 mM of amino acid and/or 10 mM sugar were dissolved in 10 ml 0.1 mM KH2PO4-buffer, pH=7.8.\nThe samples were kept at 100° C. in sealed glass vials (Pyrex 15 ml with screw caps) for 0 (before reaction), 2.5 or 5.0 hours. Thereafter the samples were transferred to an ice water bath and cooled down to room temperature. These samples were diluted 1:10 and used for the test assay for anti-oxidant potential."}, "[5]": {"conditions": "the sweeteness depends on the tested concentration compared with sucrose; cited from earlier work"}, "[6]": {"conditions": "Table 52.2, 1 ml water + 9 ml Glycerin, 0.67 h, 100° C. (Table 50.2)"}, "[7]": {"conditions": "Table 52.5, 1 ml water + 9 ml Glycerin, 2.0 h, 120° C. (Table 50.5)"}, "[8]": {"conditions": "Table 52.3, 1 ml water + 9 ml Glycerin, 0.67 h, 100° C. (Table 50.3)"}, "[9]": {"conditions": "Table 52.6, Glycerin, 10 ml, 100° C., 40 min (Table 50.6)"}, "[10]": {"conditions": "Table 52.7, Glycerin, 10 ml, 1 h, 120° C. (Table 50.7)"}, "[11]": {"conditions": "Example 57, before reaction, 10 ml KH2PO4, pH 7.8"}, "[12]": {"conditions": "Table 52.1, 1 ml water + 9 ml Glycerin, 1 h, 100° C. (Table 50.1)"}, "[13]": {"conditions": "Example 57, after reaction, 10 ml KH2PO4, pH 7.8, 2.5 h, 120° C."}}, "data": [{"compound": "C[C@H](N)C(=O)O", "note": "[0.1 mMol Ala]", "values": [{"measurement": "Smell", "setting": "[1]; [6]", "value": "Agar"}, {"measurement": "Taste", "setting": "[1]; [6]", "value": "sweet"}]}, {"compound": "O=C[C@H](O)[C@H]1OC(=O)[C@@H](O)[C@H]1O", "note": "[0.1 mMol GlucLac]", "values": [{"measurement": "Intensity of Smell", "setting": "[1]; [7]", "value": "+++"}, {"measurement": "Smell", "setting": "[1]; [7]", "value": "Burnt sugar"}, {"measurement": "Taste", "setting": "[1]; [7]", "value": "Bitter"}]}, {"compound": "NCCCC[C@H](N)C(=O)O", "note": "[0.1 mMol Lys]", "values": [{"measurement": "Smell", "setting": "[1]; [8]", "value": "Popcorn"}, {"measurement": "Taste", "setting": "[1]; [8]", "value": "Sweet"}]}, {"compound": "N[C@@H](Cc1ccccc1)C(=O)O", "note": "[0.1 mMol Phe]", "values": [{"measurement": "Taste", "setting": "[1]; [6]", "value": "sweet"}, {"measurement": "Intensity of Smell", "setting": "[1]; [7]", "value": "+"}, {"measurement": "Smell", "setting": "[1]; [7]", "value": "Caramel, burnt"}, {"measurement": "Taste", "setting": "[1]; [7]", "value": "sweet"}]}, {"compound": "C=C1C[C@@]23CC[C@H]4[C@@](C)(CCC[C@@]4(C)C(=O)O[C@@H]4O[C@H](CO)[C@@H](O)[C@H](O)[C@H]4O)[C@@H]2CC[C@]1(O[C@@H]1O[C@H](CO)[C@@H](O)[C@H](O[C@@H]2O[C@H](CO)[C@@H](O)[C@H](O)[C@H]2O)[C@H]1O[C@@H]1O[C@H](CO)[C@@H](O)[C@H](O)[C@H]1O)C3", "note": "[0.05 mMol Reb-A]", "values": [{"measurement": "Smell", "setting": "[1]; [6]", "value": "neutral/unpleasant"}, {"measurement": "Taste", "setting": "[1]; [6]", "value": "sweet"}]}, {"compound": "N[C@@H](Cc1ccccc1)C(=O)O", "note": "[3.3 mMol Phe]", "values": [{"measurement": "Smell", "setting": "[1]; Table 52.6, Glycerin, 10 ml, 100° C., 5 min (Table 50.6)", "value": "Slightly bloomy"}, {"measurement": "Smell", "setting": "[1]; Table 52.6, Glycerin, 10 ml, 100° C., 10 min (Table 50.6)", "value": "flowery/bloomy"}, {"measurement": "Smell", "setting": "[1]; Table 52.6, Glycerin, 10 ml, 100° C., 20 min (Table 50.6)", "value": "flowery/bloomy"}, {"measurement": "Smell", "setting": "[1]; [9]", "value": "flowery/bloomy"}, {"measurement": "Smell", "setting": "[1]; [10]", "value": "flowery/bloomy"}]}, {"compound": "C[C@H](N)C(=O)O", "note": "[8.91 mg Ala]", "values": [{"measurement": "Smell", "setting": "[2]", "value": "Neutral, slightly Agar"}, {"measurement": "Taste", "setting": "[2]", "value": "Slightly sweet"}]}, {"compound": "OC[C@H]1OC(O)[C@H](O)[C@@H](O)[C@@H]1O", "note": "(stereo partly shown) [9 mg Glucose]", "values": [{"measurement": "Smell", "setting": "[3]; [11]", "value": "neutral"}, {"measurement": "Taste", "setting": "[3]; [11]", "value": "Sweet"}]}, {"compound": "OC[C@H]1OC(O)[C@H](O)[C@@H](O)[C@@H]1O", "note": "(stereo partly shown) [10 mMol Glu]", "values": [{"measurement": "Smell", "setting": "[1]; [9]", "value": "Slightly Caramel"}, {"measurement": "Smell", "setting": "[1]; [10]", "value": "Slightly Caramel"}]}, {"compound": "N[C@@H](CO)C(=O)O", "note": "[10.5 mg Ser]", "values": [{"measurement": "Smell", "setting": "[2]", "value": "Lotus flower"}, {"measurement": "Taste", "setting": "[2]", "value": "Slightly sweet"}]}, {"compound": "O=C(O)[C@@H]1CCCN1", "note": "[11.5 mg Pro]", "values": [{"measurement": "Taste", "setting": "[2]", "value": "Slightly sweet"}]}, {"compound": "C[C@@H](O)[C@H](N)C(=O)O", "note": "[11.91 mg Thr]", "values": [{"measurement": "Smell", "setting": "[2]", "value": "Vanilla, butter"}, {"measurement": "Taste", "setting": "[2]", "value": "Slightly sweet"}]}, {"compound": "N[C@@H](CS)C(=O)O", "note": "[12.1 mg Cys]", "values": [{"measurement": "Smell", "setting": "[2]", "value": "Unpleasant (sulfur)"}, {"measurement": "Taste", "setting": "[2]", "value": "Slightly sweet"}]}, {"compound": "CC[C@H](C)[C@H](N)C(=O)O", "note": "[13.11 mg Ile]", "values": [{"measurement": "Smell", "setting": "[2]", "value": "Coffee"}, {"measurement": "Taste", "setting": "[2]", "value": "Slightly sweet"}]}, {"compound": "NCCCC[C@H](N)C(=O)O", "note": "[14.7 mg Lys]", "values": [{"measurement": "Smell", "setting": "[2]", "value": "Popcorn"}, {"measurement": "Taste", "setting": "[2]", "value": "Slightly sweet"}]}, {"compound": "CSCC[C@H](N)C(=O)O", "note": "[14.9 mg Met]", "values": [{"measurement": "Smell", "setting": "[2]", "value": "Sulfuric"}, {"measurement": "Taste", "setting": "[2]", "value": "Slightly sweet"}]}, {"compound": "N[C@@H](Cc1ccccc1)C(=O)O", "note": "[16.5 mg Phe]", "values": [{"measurement": "Smell", "setting": "[3]; [11]", "value": "neutral"}, {"measurement": "Taste", "setting": "[3]; [11]", "value": "No taste"}, {"measurement": "Smell", "setting": "[3]; Example 58, before reaction, 10 ml KH2PO4, pH 7.8", "value": "Neutral"}, {"measurement": "Taste", "setting": "[3]; Example 58, before reaction, after dilution 1:20", "value": "No taste"}, {"measurement": "Smell", "setting": "[2]", "value": "Bloomy, caramel"}, {"measurement": "Taste", "setting": "[2]", "value": "Slightly sweet"}]}, {"compound": "N[C@@H](Cc1ccc(O)cc1)C(=O)O", "note": "[18.1 mg Tyr]", "values": [{"measurement": "Smell", "setting": "[2]", "value": "neutral"}, {"measurement": "Taste", "setting": "[2]", "value": "Slightly sweet"}]}, {"compound": "N[C@@H](Cc1c[nH]c2ccccc12)C(=O)O", "note": "[20.42 mg Try]", "values": [{"measurement": "Smell", "setting": "[2]", "value": "Unpleasant (fecal)"}, {"measurement": "Taste", "setting": "[2]", "value": "Slightly sweet"}]}, {"compound": "N[C@@H](CCC(=O)O)C(=O)O", "note": "[167 mMol Glu]", "values": [{"measurement": "Smell", "setting": "[1]; [12]", "value": "caramel"}, {"measurement": "Taste", "setting": "[1]; [12]", "value": "Sweet"}]}, {"compound": "O=C[C@H](O)[C@@H](O)[C@H](O)[C@H](O)C(=O)O", "note": "[Glucuronic Acid]", "values": [{"measurement": "Smell", "setting": "[3]; [13]", "value": "burnt bread"}, {"measurement": "Taste", "setting": "[3]; [13]", "value": "Bitter"}]}, {"compound": "O=C1O[C@@H]2[C@@H](O)[C@H](O)O[C@@H]2C1O", "note": "(stereo partly shown) [Glucuronolactone]", "values": [{"measurement": "Smell", "setting": "[3]; [13]", "value": "Burnt sugar"}, {"measurement": "Taste", "setting": "[3]; [13]", "value": "Bitter"}]}, {"compound": "N[C@@H](Cc1ccccc1)C(=O)O", "note": "[Phe 60 mMol]", "values": [{"measurement": "Smell", "setting": "[1]; [12]", "value": "flowery/bloomy-caramel"}, {"measurement": "Taste", "setting": "[1]; [12]", "value": "Sweet"}]}, {"compound": "N[C@H](Cc1ccccc1)C(=O)O", "note": "[Phe]", "values": [{"measurement": "Smell", "setting": "[3]; [13]", "value": "Caramel, burnt"}, {"measurement": "Taste", "setting": "[3]; [13]", "value": "sweet"}]}, {"compound": "C=C1C[C@@]23CC[C@H]4[C@@](C)(CCC[C@@]4(C)C(=O)O[C@@H]4O[C@H](CO)[C@@H](O)[C@H](O)[C@H]4O)[C@@H]2CC[C@]1(O[C@@H]1O[C@H](CO)[C@@H](O)[C@H](O[C@@H]2O[C@H](CO)[C@@H](O)[C@H](O)[C@H]2O)[C@H]1O[C@@H]1O[C@H](CO)[C@@H](O)[C@H](O)[C@H]1O)C3", "note": "[Reb-A, Rebaudioside A]", "values": [{"measurement": "anti-oxidant properties", "setting": "[4]", "value": "substantial anti-oxidant properties"}]}, {"compound": "O=S(=O)([O-])NC1CCCCC1.[Na+]", "note": "[sodium cyclamate]", "values": [{"measurement": "times sweeter than sucrose", "setting": "[5]", "value": "about 30 times"}]}, {"compound": "OC[C@H]1O[C@H](O[C@]2(CCl)O[C@H](CCl)[C@@H](O)[C@@H]2O)[C@H](O)[C@@H](O)[C@H]1Cl", "note": "[sucralose]", "values": [{"measurement": "times sweeter than sucrose", "setting": "[5]", "value": "about 600 times"}]}, {"compound": "Thaumatin", "values": [{"measurement": "times sweeter than sucrose", "setting": "[5]", "value": "about 2000 times"}]}]}
